The text below walks through data of BindingDB's records for doi:10.1016/j.bioorg.2016.12.011 (University of Karachi, 2017).

This assay deals with T1, Beta-glucuronidase (Bos taurus, UniProt A3KMY8).
T1 sequence (A3KMY8 whole entry): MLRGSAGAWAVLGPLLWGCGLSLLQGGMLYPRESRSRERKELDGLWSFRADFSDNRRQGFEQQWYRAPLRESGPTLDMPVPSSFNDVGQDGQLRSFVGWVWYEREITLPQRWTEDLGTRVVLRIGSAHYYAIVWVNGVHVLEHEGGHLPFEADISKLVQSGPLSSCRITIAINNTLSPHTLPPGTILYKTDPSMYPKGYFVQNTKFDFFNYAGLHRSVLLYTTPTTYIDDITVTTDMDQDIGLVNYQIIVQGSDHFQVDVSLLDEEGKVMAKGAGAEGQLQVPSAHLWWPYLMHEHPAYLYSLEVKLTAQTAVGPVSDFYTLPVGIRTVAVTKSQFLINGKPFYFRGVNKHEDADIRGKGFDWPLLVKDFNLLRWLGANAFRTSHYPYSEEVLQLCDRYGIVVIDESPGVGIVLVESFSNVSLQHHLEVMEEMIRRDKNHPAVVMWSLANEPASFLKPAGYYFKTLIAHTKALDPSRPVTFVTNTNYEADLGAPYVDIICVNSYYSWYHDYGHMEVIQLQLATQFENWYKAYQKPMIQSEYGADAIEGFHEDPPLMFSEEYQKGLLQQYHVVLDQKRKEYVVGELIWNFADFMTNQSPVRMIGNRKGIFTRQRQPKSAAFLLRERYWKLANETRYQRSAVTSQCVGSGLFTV
The assay is described as follows: β-Glucuronidase Inhibition Assay. Here is the method:
Total volume of reaction was 250 μL. […] Reaction mixture comprised of 0.1 M acetate buffer (185 μL), test compound solution in DMSO (5 μL), enzyme solution (10 μL), was incubated for 30 min at 37 °C. […] All assays were run in triplicate.

The term IC50 denotes the concentration needed to halve the response being measured. Read a high IC50 as weaker potency. Compound `Cc1ccc(-c2csc(N/N=C/c3ccc4ccc5cccc6ccc3c4c56)n2)cc1` [(E)-2-(2-(Pyren-1-ylmethylene)hydrazinyl)-4-(p-tolyl)thiazole (4)] came in with an IC50 of 40.1 µM.
As for `NC(=S)N/N=C/c1ccc2ccc3cccc4ccc1c2c34` [(E)-2-(Pyren-1-ylmethylene)hydrazine-1-carbothioamide (2)], the IC50 turned out to be 5.5 µM.
Take `Clc1ccc(-c2csc(C/C=C/c3ccc4ccc5cccc6ccc3c4c56)n2)cc1` [(E)-4-(4-Chlorophenyl)-2-(3-(pyren-1-yl)allyl)thiazole (10)]: half-maximal inhibition (IC50) required 11.1 µM.
As for `COc1ccc(-c2csc(N/N=C/c3ccc4ccc5cccc6ccc3c4c56)n2)cc1` [(E)-4-(4-Methoxyphenyl)-2-(2-(pyren-1-ylmethylene)hydrazinyl)thiazole (3)], the figure is 24.4 µM; as for `C(=N\Nc1nc(-c2ccc(-c3ccccc3)cc2)cs1)/c1ccc2ccc3cccc4ccc1c2c34` [(E)-4-([1,10-Biphenyl]-4-yl)-2-(2-(pyren-1-ylmethylene)hydrazinyl)thiazole (5)], 36.1 µM.
